Tested on: phosphate uptake by rabbit intestinal Brush Border Membrane Vesicles (BBMV)
Assay: 33PO4 uptake in rabbit intestinal BBMV (HTS), phosphate transporter inhibition in vitro
Assay type: biochemical
Conditions: for % Inhib. at 100 μM: Table 12, 100 μM compound; for IC50: Table 13, phosphate uptake, read-out: IC50
Method in brief: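 BBMV from duodenal mucosa of male New Zealand White rabbits, diluted to about 0.5-2.0 mg/mL protein. Uptake buffers carried 33PO4 at 200,000 CPM/19 μL. Controls: Na uptake buffer (max), plus 100 μM KH2PO4 pH 7.4 (mid), K uptake buffer (min).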

Compound	IC50 [µM]	% Inhib. at 100 μM [%]
O=S(=O)(Cc1c(Cl)cccc1Cl)c1cc(C(F)(F)F)cc(C(F)(F)F)c1 [Compound 283]	–	51
Cc1cc(S(=O)(=O)Cc2ccc(Cl)c(Cl)c2)c(Cl)cc1Cl [Compound 284]	–	51
O=[N+]([O-])c1ccc(CS(=O)(=O)c2ccc(F)cc2F)c(Cl)c1 [Compound 285]	–	44
O=S(=O)(Cc1c(F)cccc1Cl)c1ccc(Cl)cc1 [Compound 286]	–	39
O=S(=O)(Cc1ccccc1)c1ccccc1 [Compound 287]	–	34
O=S(=O)(Cc1ccc(Br)cc1F)c1ccc(Cl)cc1 [Compound 288]	–	31
O=S(=O)(Cc1ccc(C(F)(F)F)cc1)c1ccc(Cl)cc1 [Compound 291]	–	0
O=S(=O)(O)c1cc(NS(=O)(=O)c2ccc(-c3ccccc3)cc2)ccc1/C=C/c1ccc(NS(=O)(=O)c2ccc(-c3ccccc3)cc2)cc1S(=O)(=O)O [Compound 293]	51 to 100	–
O=[N+]([O-])c1ccc(S(=O)(=O)Nc2ccc(/C=C/c3ccc(NS(=O)(=O)c4ccc([N+](=O)[O-])cc4)cc3S(=O)(=O)O)c(S(=O)(=O)O)c2)cc1 [Compound 294]	101 to 500	–
O=[N+]([O-])c1cccc(S(=O)(=O)Nc2ccc(/C=C/c3ccc(NS(=O)(=O)c4cccc([N+](=O)[O-])c4)cc3S(=O)(=O)O)c(S(=O)(=O)O)c2)c1 [Compound 297]	101 to 500	–
O=S(=O)(O)c1cc(NS(=O)(=O)c2ccc(-c3ccccc3)cc2)ccc1/C=C/c1ccc(NS(=O)(=O)c2ccc(-c3ccccc3)cc2)cc1S(=O)(=O)O [Compound 298]	501 to 1000	–
O=[N+]([O-])c1ccc(S(=O)(=O)Nc2ccc(/C=C/c3ccc(NS(=O)(=O)c4ccc([N+](=O)[O-])cc4)cc3S(=O)(=O)O)c(S(=O)(=O)O)c2)cc1 [Compound 303]	501 to 1000	–
O=[N+]([O-])c1ccc(/C=C/c2ccc([N+](=O)[O-])cc2S(=O)(=O)O)c(S(=O)(=O)O)c1 [Compound 305]	1000 to 1500	–
Nc1ccc(/C=C/c2ccc(N)cc2)cc1 [Compound 308]	> 1500	–
Cc1ccc(S(=O)(=O)Nc2ccc(/C=C/c3ccc(NS(=O)(=O)c4ccc(C)c([N+](=O)[O-])c4)cc3S(=O)(=O)O)c(S(=O)(=O)O)c2)cc1[N+](=O)[O-] [Compound 309]	> 1500	–
O=S(=O)(O)c1cc(NS(=O)(=O)c2cccc3cccnc23)ccc1/C=C/c1ccc(NS(=O)(=O)c2cccc3cccnc23)cc1S(=O)(=O)O [Compound 311]	> 1500	–

Second part, led by results:

IC50 [µM]	Compound	% Inhib. at 100 μM [%]
< 50	O=S(=O)(O)c1cc(/N=N/c2ccc(O)cc2)ccc1/C=C/c1ccc(/N=N/c2ccc(O)cc2)cc1S(=O)(=O)O [Compound 292]	–
101 to 500	O=S(=O)(O)c1cc(NS(=O)(=O)c2cccc(C(F)(F)F)c2)ccc1/C=C/c1ccc(NS(=O)(=O)c2cccc(C(F)(F)F)c2)cc1S(=O)(=O)O [Compound 296]	–
501 to 1000	O=S(=O)(O)c1cc(NS(=O)(=O)c2cccc3ccccc23)ccc1/C=C/c1ccc(NS(=O)(=O)c2cccc3ccccc23)cc1S(=O)(=O)O [Compound 299]	–
501 to 1000	O=C(Nc1ccc(/C=C/c2ccc(NC(=O)c3ccccc3)cc2S(=O)(=O)O)c(S(=O)(=O)O)c1)c1ccccc1 [Compound 300]	–
501 to 1000	O=S(=O)(O)c1cc(NS(=O)(=O)c2cccc(Cl)c2)ccc1/C=C/c1ccc(NS(=O)(=O)c2cccc(Cl)c2)cc1S(=O)(=O)O [Compound 301]	–
501 to 1000	O=S(=O)(O)c1cc(Nc2nc(Nc3ccccc3)nc(N(CCO)CCO)n2)ccc1/C=C/c1ccc(Nc2nc(Nc3ccccc3)nc(N(CCO)CCO)n2)cc1S(=O)(=O)O [Compound 302]	–
> 1500	Oc1ccc(/C=C/c2ccc(O)cc2)cc1 [Compound 306]	–
> 1500	O=S(=O)(O)c1cc(N=C=S)ccc1/C=C/c1ccc(N=C=S)cc1S(=O)(=O)O [Compound 307]	–

From patent US20070021509A1, “Phosphate transport inhibitors” (priority 2001, published 2007)
